Drawing on patent US9902726B2, “Pyridone-sulfone morphinan analogs as opioid receptor ligands” (Purdue Pharma L.P., priority 2013, dated 2018), this text covers EC50, Emax and Ki for eight compounds.

As usually defined, the EC50 is the concentration at which the effect is half-maximal. A low value points to higher potency in that assay. A word on the Emax: it is the size of the effect at its maximum, as opposed to the concentration needed. The term Ki denotes the dissociation constant of the complex between target and ligand, obtained from inhibition or displacement.

Test [1] deals with T1, κ opioid receptor (Homo sapiens (Human), UniProt P41145). The experiment in a line: κ-opioid receptor [35S]GTPγS functional assay, U-2 OS cells. The format is biochemical. As to conditions: for Emax: U-2 OS cells, relative to U69,593. On the procedure:
(§1) κ-Opioid Receptor Functional Assay Procedures: Functional [^35S]GTPγS binding assays were conducted as follows. κ opioid receptor membrane solution was prepared by sequentially adding final concentrations of 0.026 μg/μl κ membrane protein (in-house), 10 μg/mL saponin, 3 μM GDP and 0.20 nM [^35S]GTPγS to binding buffer (100 mM NaCl, 10 mM MgCl2, 20 mM HEPES, pH 7.4) on ice. The prepared membrane solution (190 μl/well) was transferred to 96-shallow well polypropylene plates containing 10 μl of 20× concentrated stock solutions of agonist prepared in DMSO. Plates were incubated for 30 min at a temperature of about 25° C. with shaking.
(§2) κ-Opioid Receptor Functional Data: κ GTP EC50 is the concentration of a compound providing 50% of the maximal response for the compound at a κ receptor.
(§3) κ GTP Emax (%) is the maximal effect elicited by a compound relative to the effect elicited by U69,593.
(Binding of GTPγS marks nucleotide exchange on a G protein.)

The target in test [2] is T2, μ-opioid receptor (Homo sapiens (Human), UniProt P35372). Nature of the test: μ-opioid receptor [35S]GTPγS functional assay, U-2 OS cells. Type of test: biochemical. The settings on record: for Emax: U-2 OS cells, relative to DAMGO. Here is the method:
(§4) μ-Opioid Receptor Functional Assay Procedures: [^35S]GTPγS functional assays were conducted using freshly thawed μ-receptor membranes prepared in-house from a cell line expressing recombinant μ opioid receptor in a HEK-293, CHO, or U-2 OS cell background or purchased from a commercial source (Perkin Elmer, Shelton, Conn.). Assay reactions were prepared by sequentially adding the following reagents to binding buffer (100 mM NaCl, 10 mM MgCl2, 20 mM HEPES, pH 7.4) on ice (final concentrations indicated): membrane protein (0.026 mg/mL), saponin ([…]), GDP ([…]) and [^35S]GTPγS (0.20 nM; Perkin Elmer, Shelton, Conn.). The prepared membrane solution (190 μl/well) was transferred to 96-shallow well polypropylene plates containing 10 μl of 20× concentrated stock solutions of the agonist [D-Ala^2, N-methyl-Phe^4 Gly-ol^5]-enkephalin (DAMGO) prepared in dimethyl sulfoxide (DMSO). Plates were incubated for 30 min at about 25° C. with shaking. […] Data were analyzed using the sigmoidal dose-response curve fitting functions in GraphPad PRISM v. 3.0, or an in-house function for non-linear, sigmoidal dose-response curve-fitting. [^35S]GTPγS functional assays can also be conducted using freshly thawed μ-receptor membranes prepared from a cell line expressing recombinant opioid receptor in a CHO-K1 cell background.
(§5) μ-Opioid Receptor Functional Data: μ GTP EC50 is the concentration of a compound providing 50% of the maximal response for the compound at a μ-opioid receptor.
(§6) μ GTP Emax (%) is the maximal effect elicited by a compound relative to the effect elicited by DAMGO, a standard μ agonist. Generally, the μ GTP Emax (%) value measures the efficacy of a compound to treat or prevent pain or other Conditions.

Test [3] addresses recombinant human kappa opioid receptor (κ) (Homo sapiens (Human), UniProt P41145). Nature of the test: κ-opioid receptor radioligand dose-displacement binding assay ([3H]-U69,593). On the procedure:
κ-Opioid Receptor Binding Assay Procedures: Membranes from HEK-293 cells, CHO cells, or U-2 OS cells expressing the recombinant human kappa opioid receptor (κ) were prepared by lysing cells in ice cold hypotonic buffer (2.5 mM MgCl2, 50 mM HEPES, pH 7.4) (10 mL/10 cm dish) followed by homogenization with a tissue grinder/Teflon pestle. Membranes from a cell line naturally expressing kappa opioid receptor can also be used. Membranes were collected by centrifugation at 30,000×g for 15 min at 4° C. and pellets were resuspended in hypotonic buffer to a final concentration of 1-3 mg/mL. Protein concentrations were determined using the BioRad protein assay reagent with bovine serum albumen as standard. Aliquots of κ receptor membranes were stored at −80° C.
Radioligand dose displacement assays used 0.4 nM [^3H]-U69,593 (GE Healthcare, Piscataway, N.J.; 40 Ci/mmole) with 15 μg membrane protein (recombinant κ opioid receptor expressed in HEK 293 cells; in-house prep) in a final volume of 200 μl binding buffer (5% DMSO, 50 mM Trizma base, pH 7.4). Non-specific binding was determined in the presence of 10 μM unlabeled naloxone or U69,593. All reactions were performed in 96-well polypropylene plates for 1 hour at a temperature of about 25° C.

Test [4] concerns the target T2, μ-opioid receptor. The experiment in a line: μ-opioid receptor [35S]GTPγS functional assay, HEK-293 or CHO cells. The format is biochemical. As to conditions: for Emax: HEK-293 or CHO cells, relative to DAMGO. Here is the method:
as §4, §5, §6

Test [5] addresses T1, κ opioid receptor. Nature of the test: κ-opioid receptor [35S]GTPγS functional assay, HEK-293 or CHO cells. The format is biochemical. The settings on record: for Emax: HEK-293 or CHO cells, relative to U69,593. On the procedure:
as §1, §2, §3

The target in test [6] is T2, μ-opioid receptor. The experiment in a line: μ-opioid receptor radioligand dose-displacement binding assay ([3H]-diprenorphine).
Procedure: Radioligand dose-displacement binding assays for μ-opioid receptors used 0.3 nM [^3H]-diprenorphine (Perkin Elmer, Shelton, Conn.), with 5 mg membrane protein/well in a final volume of 500 μl binding buffer (10 mM MgCl2, 1 mM EDTA, 5% DMSO, 50 mM HEPES, pH 7.4). Reactions were carried out in the absence or presence of increasing concentrations of unlabeled naloxone. All reactions were conducted in 96-deep well polypropylene plates for 2 hours at room temperature. Binding reactions were terminated by rapid filtration onto 96-well Unifilter GF/C filter plates (Perkin Elmer, Shelton, Conn.), presoaked in 0.5% polyethylenimine using a 96-well tissue harvester (Perkin Elmer, Shelton, Conn.) followed by performing three filtration washes with 500 μl of ice-cold binding buffer. Filter plates were subsequently dried at 50° C. for 2-3 hours. BetaScint scintillation cocktail (Perkin Elmer, Shelton, Conn.) was added (50 μl/well), and plates were counted using a Packard Top-Count for 1 min/well. The data were analyzed using the one-site competition curve fitting functions in GraphPad PRISM™ v.

Consider `O=c1[nH]c2c(cc1S(=O)(=O)c1ccccc1)C[C@@]1(O)[C@H]3Cc4ccc(O)cc4[C@@]1(CCN3CC1CC1)C2` [Compound 6, (6R,6aS,12aR)-15-(cyclopropylmethyl)-2,6a-dihydroxy-9-(phenylsulfonyl)-6a,7,11,12-tetrahydro-5H-6,12a-(epiminoethano)naphtho[2,1-g]quinolin-10(6H)-one], for which, in test [1], the EC50 came to 0.26 ± 0.055 nM and the maximal effect (Emax) is 33.2 ± 2.84%. In test [2], this compound registered an EC50 of more than 20000 nM and a maximal effect (Emax) of 2%.

In the case of `CN1CC[C@]23Cc4[nH]c(=O)c(S(=O)(=O)c5ccccc5)cc4C[C@@]2(O)[C@H]1Cc1ccc(O)cc13` [Compound 8, (6R,6aS,12aR)-2,6a-dihydroxy-15-methyl-9-(phenylsulfonyl)-6a,7,11,12-tetrahydro-5H-6,12a-(epiminoethano)naphtho[2,1-g]quinolin-10(6H)-one], the inhibitory constant (Ki) in test [3] was 19.5 ± 2.69 nM. Further, the 50% effective concentration (EC50) in test [1] turned out to be 35.8 ± 3.77 nM; in test [2], 77.5 ± 10.9 nM. Besides, the Emax came to 82.3 ± 3.67% in test [1] and 61.7 ± 1.67% in test [2].

On to `O=c1[nH]c2c(cc1S(=O)(=O)c1ccccc1)C[C@H]1[C@H]3Cc4ccc(O)cc4[C@@]1(CCN3CC1CC1)C2` [Compound 10, (6R,6aR,12aS)-15-(cyclopropylmethyl)-2-hydroxy-9-(phenylsulfonyl)-6a,7,11,12-tetrahydro-5H-6,12a-(epiminoethano)naphtho[2,1-g]quinolin-10(6H)-one], for which, in test [4], the EC50 was more than 20000 nM and the Emax is 2%.

In the case of `CS(=O)(=O)c1cc2c([nH]c1=O)C[C@]13CCN(CC4CC4)[C@H](Cc4ccc(O)cc41)[C@@H]3C2` [Compound 9, (6R,6aR,12aS)-15-(cyclopropylmethyl)-2-hydroxy-9-(methylsulfonyl)-6a,7,11,12-tetrahydro-5H-6,12a-(epiminoethano)naphtho[2,1-g]quinolin-10(6H)-one], in test [4], the EC50 is more than 20000 nM and the maximum response (Emax) turned out to be 2.5%.

For `CN1CC[C@]23Cc4[nH]c(=O)c(S(=O)(=O)c5ccccc5)cc4C[C@H]2[C@H]1Cc1ccc(O)cc13` [Compound 12, (6R,6aR,12aS)-2-hydroxy-15-methyl-9-(phenylsulfonyl)-6,6a,7,12-tetrahydro-5H-6,12a-(epiminoethano)naphtho[2,1-g]quinolin-10(11H)-one], in test [3], the Ki came to 2.78 ± 0.75 nM. In addition, in test [5], the EC50 stood at 17.2 ± 4.22 nM and the Emax turned out to be 17.2 ± 1.04%. In test [4], this compound registered a concentration for a half-maximal effect (EC50) of 83.1 ± 24.1 nM and a maximum response (Emax) of 19.8 ± 2.63%.

Take `CN1CC[C@]23Cc4[nH]c(=O)c(S(C)(=O)=O)cc4C[C@H]2[C@H]1Cc1ccc(O)cc13` [Compound 11, (6R,6aR,12aS)-2-hydroxy-15-methyl-9-(methylsulfonyl)-6,6a,7,12-tetrahydro-5H-6,12a-(epiminoethano)naphtho[2,1-g]quinolin-10(11H)-one]: in test [3], the Ki turned out to be 13.1 ± 2.27 nM. Also, the 50% effective concentration (EC50) in test [5] is 107 ± 28.7 nM; in test [4] it was 259 ± 53.5 nM. For the same compound, the Emax came out at 16.7 ± 1.21% in test [5] and 20.7 ± 1.76% in test [4].

Regarding `CS(=O)(=O)c1cc2c([nH]c1=O)C[C@]13CCN(CC4CC4)[C@H](Cc4ccc(O)cc41)[C@]3(O)C2` [Compound 5, (6R,6aS,12aR)-15-(cyclopropylmethyl)-2,6a-dihydroxy-9-(methylsulfonyl)-6a,7,11,12-tetrahydro-5H-6,12a-(epiminoethano)naphtho[2,1-g]quinolin-10(6H)-one], the Ki in test [3] was found to be 0.36 ± 0.091 nM; in test [6] it was 0.76 ± 0.13 nM. Moreover, the concentration for a half-maximal effect (EC50) in test [1] is 0.85 ± 0.075 nM; in test [5], 1.27 ± 0.3 nM; in test [2], more than 20000 nM; in test [4] it was more than 20000 nM. In addition, the maximum response (Emax) in test [1] amounted to 55.7 ± 2.4%; in test [5], 10.3 ± 0.67%; in test [2], 2%; in test [4] it was 1%.

For `CN1CC[C@]23Cc4[nH]c(=O)c(S(C)(=O)=O)cc4C[C@@]2(O)[C@H]1Cc1ccc(O)cc13` [Compound 7, (6R,6aS,12aR)-2,6a-dihydroxy-15-methyl-9-(methylsulfonyl)-6a,7,11,12-tetrahydro-5H-6,12a-(epiminoethano)naphtho[2,1-g]quinolin-10(6H)-one], the EC50 was found to be 203 ± 47.7 nM in test [1] and 148 ± 6.21 nM in test [2]. Also, the values for the maximal effect (Emax) in test [1] and in test [2] were 71.3 ± 3.33% and 68 ± 1.15%, respectively.
